Peptide text beside a SMILES is read from it.

In the test the test system is Rattus norvegicus. The experiment in a line: Estrogen-like activity in ovariectomized SD rat assessed as increase in uterus weight at 2.5 mg/kg, sc administered daily for 14 days. Format: functional. The following applies: route subcutaneous.

As to `CC(C)[C@@H]1NC(=O)[C@@H]2CCCN2C(=O)[C@H](C(C)C)NC(=O)CNC(=O)[C@H](C)NC(=O)[C@H](Cc2c[nH]c3ccccc23)NC1=O` [SEGETALIN A] (cyclo(AGVPVW)), the Activity was determined as 54.4 mg.

With `CC(C)[C@@H]1NC(=O)CNC(=O)[C@H](C)NC(=O)[C@H](Cc2c[nH]c3ccccc23)NC(=O)[C@H](C)NC1=O` [SEGETALIN B] (cyclo(AGVAW)), the Activity worked out at 56.3 mg. With `CC(C)[C@@H]1NC(=O)CNC(=O)[C@H](C)NC(=O)[C@H](Cc2ccc(O)cc2)NC(=O)[C@H](CCCCN)NC1=O` [SEGETALIN G] (cyclo(AGVKY)) the figure was 51.2 mg. As to `N=C(N)NCCC[C@@H]1NC(=O)[C@H](Cc2ccc(O)cc2)NC(=O)CNC(=O)[C@H](CO)NC(=O)[C@H](Cc2ccccc2)NC1=O` [SEGETALIN H] (cyclo(FSGYR)), the Activity turned out to be 54.8 mg.

The values are drawn from ChEMBL document CHEMBL1145713, “Cyclic peptides from higher plants. 34. Segetalins G and H, structures and estrogen-like activity of cyclic pentapeptides from Vaccaria segetalis” (1997).
